In patent US11572369B2, “Bicyclic pyridine compositions and methods of using the same for cancer therapy” (UNIVERSITY OF SOUTH CAROLINA, priority 2019, dated 2023):

Tests used:
Test in all cases: KINOMEscan
Assay type in all cases: binding
Conditions in all cases: 2000 nM
[1] = target: ABL1(F317L)-phosphorylated (Homo sapiens, UniProt P00519, F317L)
[2] = target: T1, BRK (Homo sapiens, UniProt Q13882)
T1 construct: DNA label (for qPCR read-out); purchased KINOMEscan scanMAX panel (DiscoveRx)

[3] = target: T2, CASK (Homo sapiens, UniProt O14936)
T2 construct: DNA label (qPCR read-out); purchased KINOMEscan (ScanMAX panel service)

[4] = target: T3, CDK3 (Homo sapiens, UniProt Q00526)
T3 construct: purchased DiscoverX (KINOMEscan service)

[5] = target: T4, CDK4-cyclinD3 (Homo sapiens, UniProt P11802)
T4 construct: purchased DiscoverX (KINOMEscan service)

[6] = target: T5, DCAMKL3 (Homo sapiens, UniProt Q9C098)
T5 construct: DNA label (qPCR read-out); purchased KINOMEscan (DiscoveRx) panel

[7] = target: T6, DMPK (Homo sapiens, UniProt Q09013)
T6 construct: DNA label (qPCR read-out); purchased KINOMEscan (DiscoveRx) panel

[8] = target: T7, EPHA7 (Homo sapiens, UniProt Q15375)
T7 construct: purchased DiscoveRx (KINOMEscan scanMAX panel)

[9] = target: T8, EPHB4 (Homo sapiens, UniProt P54760)
T8 construct: purchased DiscoveRx (KINOMEscan scanMAX panel)

[10] = target: T9, ERBB3 (Homo sapiens, UniProt P21860)
T9 construct: DNA label (qPCR read-out); purchased DiscoveRx (KINOMEscan ScanMAX panel)

[11] = target: T10, FGFR4 (Homo sapiens, UniProt P22455)
T10 construct: purchased DiscoveRx (KINOMEscan scanMAX panel)

[12] = target: T11, FLT3(D835V) (Homo sapiens, UniProt P36888, D835V)
T11 construct: purchased DiscoveRx (KINOMEscan scanMAX panel)

[13] = target: T12, FLT3(K663Q) (Homo sapiens, UniProt P36888, K663Q)
T12 construct: purchased KINOMEscan (DiscoveRx)

[14] = target: T13, HCK (Homo sapiens, UniProt P08631)
T13 construct: DNA label (for qPCR read-out); purchased DiscoveRx (KINOMEscan scanMAX panel, contract assay)

[15] = target: T14, IKK-beta (Homo sapiens, UniProt O14920)
T14 construct: DNA label (qPCR read-out); purchased KINOMEscan (DiscoveRx) ScanMAX panel

[16] = target: T15, JAK2(JH1domain-catalytic) (Homo sapiens, UniProt O60674)
T15 construct: JAK2(JH1domain-catalytic); DNA label (for qPCR read-out); purchased DiscoveRx (KINOMEscan scanMAX panel)

[17] = target: T16, JNK1 (Homo sapiens, UniProt P45983)
T16 construct: DNA label (for qPCR read-out); purchased DiscoveRx (KINOMEscan scanMAX panel)

[18] = target: T17, JNK2 (Homo sapiens, UniProt P45984)
T17 construct: DNA label (for qPCR read-out); purchased DiscoveRx (KINOMEscan scanMAX panel)

[19] = target: T18, KIT(V559D, T670I) (Homo sapiens, UniProt P10721, T670I/V559D)
T18 construct: purchased KINOMEscan (DiscoveRx) panel service

[20] = target: T19, LRRK2(G2019S) (Homo sapiens, UniProt Q5S007, G2019S)
T19 construct: purchased KINOMEscan (DiscoveRx) panel service

[21] = target: T20, LTK (Homo sapiens, UniProt P29376)
T20 construct: purchased KINOMEscan (DiscoveRx) panel service

[22] = target: T21, MYO3B (Homo sapiens, UniProt Q8WXR4)
T21 construct: DNA label (for qPCR read-out); purchased KINOMEscan scanMAX panel (DiscoveRx)

[23] = target: T22, PDPK1 (Homo sapiens, UniProt O15530)
T22 construct: DNA label (for qPCR read-out); purchased DiscoveRx (KINOMEscan scanMAX service)

[24] = target: T23, PIK3CA(I800L) (Homo sapiens, UniProt P42336, I800L)
T23 construct: DNA label; purchased DiscoveRx (KINOMEscan scanMAX panel)

[25] = target: T24, PLK1 (Homo sapiens, UniProt P53350)
T24 construct: purchased DiscoveRx (KINOMEscan scanMAX panel)

[26] = target: T25, PLK2 (Homo sapiens, UniProt Q9NYY3)
T25 construct: purchased DiscoveRx (KINOMEscan scanMAX panel)

[27] = target: T26, ROS1 (Homo sapiens, UniProt P08922)
T26 construct: DNA label (qPCR read-out); purchased DiscoveRx (KINOMEscan ScanMAX panel)

[28] = target: T27, RPS6KA5(Kin.Dom.1-N-terminal) (Homo sapiens, UniProt O75582)
T27 construct: Kin.Dom.1; DNA label (qPCR read-out); purchased DiscoveRx (KINOMEscan ScanMAX panel)

[29] = target: T28, RSK1(Kin.Dom.1-N-terminal) (Homo sapiens, UniProt Q15418)
T28 construct: RSK1(Kin.Dom.1); purchased DiscoveRx (KINOMEscan scanMAX panel)

[30] = target: T29, TAK1 (Homo sapiens, UniProt O43318)
T29 construct: DNA label (for qPCR read-out); purchased DiscoveRx (KINOMEscan scanMAX panel, contract assay)

[31] = target: T30, TIE2 (Homo sapiens, UniProt Q02763)
T30 construct: DNA label (qPCR read-out); purchased KINOMEscan (DiscoveRx) ScanMAX panel

[32] = target: T31, TNIK (Homo sapiens, UniProt Q9UKE5)
T31 construct: DNA label (qPCR read-out); purchased KINOMEscan (DiscoveRx) ScanMAX panel

[33] = target: T32, TRPM6 (Homo sapiens, UniProt Q9BX84)
T32 construct: DNA label (for qPCR read-out); purchased DiscoveRx (KINOMEscan scanMAX panel)

[34] = target: T33, WNK2 (Homo sapiens, UniProt Q9Y3S1)
T33 construct: purchased KINOMEscan (DiscoveRx) panel service

T7 sequence (Q15375 28-998): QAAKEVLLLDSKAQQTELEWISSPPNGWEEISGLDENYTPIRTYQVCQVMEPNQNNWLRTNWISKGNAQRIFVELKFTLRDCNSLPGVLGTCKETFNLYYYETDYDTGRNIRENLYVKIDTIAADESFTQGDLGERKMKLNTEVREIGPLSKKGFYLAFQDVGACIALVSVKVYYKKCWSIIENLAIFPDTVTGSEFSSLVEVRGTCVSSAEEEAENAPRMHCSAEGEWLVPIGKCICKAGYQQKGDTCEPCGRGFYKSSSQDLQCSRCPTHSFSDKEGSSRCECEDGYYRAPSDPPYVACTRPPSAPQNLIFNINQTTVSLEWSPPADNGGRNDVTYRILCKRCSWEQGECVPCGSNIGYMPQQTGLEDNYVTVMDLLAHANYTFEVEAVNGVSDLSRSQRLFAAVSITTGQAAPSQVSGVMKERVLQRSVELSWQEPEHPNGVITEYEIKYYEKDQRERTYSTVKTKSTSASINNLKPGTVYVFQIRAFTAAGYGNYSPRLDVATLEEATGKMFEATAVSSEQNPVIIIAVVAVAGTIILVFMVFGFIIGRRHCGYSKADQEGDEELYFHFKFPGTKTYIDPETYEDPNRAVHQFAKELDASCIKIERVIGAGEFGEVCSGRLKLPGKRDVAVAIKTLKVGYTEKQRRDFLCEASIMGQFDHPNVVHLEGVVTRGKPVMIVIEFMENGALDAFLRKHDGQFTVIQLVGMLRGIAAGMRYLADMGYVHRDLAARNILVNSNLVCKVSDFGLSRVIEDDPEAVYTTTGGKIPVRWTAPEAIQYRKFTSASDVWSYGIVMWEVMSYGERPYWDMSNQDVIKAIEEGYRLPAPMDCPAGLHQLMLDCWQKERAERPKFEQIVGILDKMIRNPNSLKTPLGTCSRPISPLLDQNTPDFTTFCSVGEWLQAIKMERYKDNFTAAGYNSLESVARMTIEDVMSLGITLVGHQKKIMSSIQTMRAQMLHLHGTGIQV
T30 sequence (Q02763 23-1124): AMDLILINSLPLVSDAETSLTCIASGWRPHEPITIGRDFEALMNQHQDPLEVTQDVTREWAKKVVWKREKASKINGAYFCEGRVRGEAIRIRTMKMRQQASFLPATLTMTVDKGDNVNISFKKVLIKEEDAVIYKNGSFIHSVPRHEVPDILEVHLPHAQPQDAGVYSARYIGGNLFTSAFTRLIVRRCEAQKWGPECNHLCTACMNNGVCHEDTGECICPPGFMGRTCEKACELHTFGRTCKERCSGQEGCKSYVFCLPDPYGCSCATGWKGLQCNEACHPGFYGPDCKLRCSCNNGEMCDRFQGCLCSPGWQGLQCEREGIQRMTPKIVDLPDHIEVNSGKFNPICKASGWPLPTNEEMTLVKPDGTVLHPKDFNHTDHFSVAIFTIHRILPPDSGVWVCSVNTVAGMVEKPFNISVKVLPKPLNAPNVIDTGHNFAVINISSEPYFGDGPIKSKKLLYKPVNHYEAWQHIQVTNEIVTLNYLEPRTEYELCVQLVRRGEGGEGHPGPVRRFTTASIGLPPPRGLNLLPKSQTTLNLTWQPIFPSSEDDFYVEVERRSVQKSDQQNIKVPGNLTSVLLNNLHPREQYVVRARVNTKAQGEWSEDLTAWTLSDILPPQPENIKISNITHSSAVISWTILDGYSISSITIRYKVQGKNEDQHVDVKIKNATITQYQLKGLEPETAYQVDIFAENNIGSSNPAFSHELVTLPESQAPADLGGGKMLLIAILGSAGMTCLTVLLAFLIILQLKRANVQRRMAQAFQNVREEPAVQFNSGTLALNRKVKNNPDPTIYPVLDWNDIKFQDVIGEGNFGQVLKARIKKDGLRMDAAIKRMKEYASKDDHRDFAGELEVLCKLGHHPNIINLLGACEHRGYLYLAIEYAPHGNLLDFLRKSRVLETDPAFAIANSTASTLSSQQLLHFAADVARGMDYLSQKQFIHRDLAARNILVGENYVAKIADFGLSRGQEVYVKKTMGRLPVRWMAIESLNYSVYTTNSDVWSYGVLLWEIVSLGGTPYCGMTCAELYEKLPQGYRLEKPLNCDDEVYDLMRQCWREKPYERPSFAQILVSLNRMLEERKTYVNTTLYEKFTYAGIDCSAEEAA
T21 sequence (Q8WXR4 whole entry): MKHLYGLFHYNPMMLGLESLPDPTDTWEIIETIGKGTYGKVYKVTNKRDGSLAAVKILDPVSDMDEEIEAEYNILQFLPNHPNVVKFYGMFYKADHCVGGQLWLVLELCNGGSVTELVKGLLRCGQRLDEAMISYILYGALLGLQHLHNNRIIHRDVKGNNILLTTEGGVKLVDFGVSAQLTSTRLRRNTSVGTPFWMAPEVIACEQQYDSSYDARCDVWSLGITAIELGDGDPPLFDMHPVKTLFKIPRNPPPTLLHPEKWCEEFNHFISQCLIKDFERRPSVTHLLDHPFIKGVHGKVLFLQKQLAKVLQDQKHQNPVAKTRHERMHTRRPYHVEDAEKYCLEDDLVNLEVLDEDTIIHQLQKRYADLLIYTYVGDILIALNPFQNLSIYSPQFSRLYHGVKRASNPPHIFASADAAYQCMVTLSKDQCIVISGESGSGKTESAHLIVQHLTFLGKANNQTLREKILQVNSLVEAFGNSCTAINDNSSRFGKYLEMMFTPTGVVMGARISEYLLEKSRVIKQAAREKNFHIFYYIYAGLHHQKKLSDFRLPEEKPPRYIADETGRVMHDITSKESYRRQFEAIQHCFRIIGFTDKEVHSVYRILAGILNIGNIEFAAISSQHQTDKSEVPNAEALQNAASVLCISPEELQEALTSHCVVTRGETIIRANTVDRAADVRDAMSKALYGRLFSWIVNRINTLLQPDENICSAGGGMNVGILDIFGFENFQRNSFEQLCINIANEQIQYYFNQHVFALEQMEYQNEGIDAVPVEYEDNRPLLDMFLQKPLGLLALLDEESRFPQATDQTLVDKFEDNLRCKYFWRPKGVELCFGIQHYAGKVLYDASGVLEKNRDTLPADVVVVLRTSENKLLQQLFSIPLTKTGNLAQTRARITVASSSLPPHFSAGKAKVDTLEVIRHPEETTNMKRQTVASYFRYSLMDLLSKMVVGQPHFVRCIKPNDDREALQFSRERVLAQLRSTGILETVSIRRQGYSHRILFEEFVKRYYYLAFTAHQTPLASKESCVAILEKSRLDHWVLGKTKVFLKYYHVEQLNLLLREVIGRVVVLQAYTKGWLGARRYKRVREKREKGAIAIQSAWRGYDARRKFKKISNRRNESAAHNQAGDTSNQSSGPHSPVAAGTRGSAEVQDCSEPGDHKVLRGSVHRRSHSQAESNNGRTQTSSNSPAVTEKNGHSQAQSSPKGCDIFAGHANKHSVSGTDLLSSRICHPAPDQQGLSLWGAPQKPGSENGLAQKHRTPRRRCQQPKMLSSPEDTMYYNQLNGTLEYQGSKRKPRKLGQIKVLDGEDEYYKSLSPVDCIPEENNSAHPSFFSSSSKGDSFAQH
T15 sequence (O60674 849-1124 limits assumed): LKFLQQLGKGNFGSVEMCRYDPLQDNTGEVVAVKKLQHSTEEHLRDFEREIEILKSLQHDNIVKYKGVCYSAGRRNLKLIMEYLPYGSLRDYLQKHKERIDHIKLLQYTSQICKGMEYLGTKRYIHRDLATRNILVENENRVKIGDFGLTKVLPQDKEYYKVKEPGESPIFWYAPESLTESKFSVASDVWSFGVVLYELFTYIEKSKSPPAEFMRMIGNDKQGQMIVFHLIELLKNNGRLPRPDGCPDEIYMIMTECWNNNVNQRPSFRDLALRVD
T14 sequence (O14920 whole entry): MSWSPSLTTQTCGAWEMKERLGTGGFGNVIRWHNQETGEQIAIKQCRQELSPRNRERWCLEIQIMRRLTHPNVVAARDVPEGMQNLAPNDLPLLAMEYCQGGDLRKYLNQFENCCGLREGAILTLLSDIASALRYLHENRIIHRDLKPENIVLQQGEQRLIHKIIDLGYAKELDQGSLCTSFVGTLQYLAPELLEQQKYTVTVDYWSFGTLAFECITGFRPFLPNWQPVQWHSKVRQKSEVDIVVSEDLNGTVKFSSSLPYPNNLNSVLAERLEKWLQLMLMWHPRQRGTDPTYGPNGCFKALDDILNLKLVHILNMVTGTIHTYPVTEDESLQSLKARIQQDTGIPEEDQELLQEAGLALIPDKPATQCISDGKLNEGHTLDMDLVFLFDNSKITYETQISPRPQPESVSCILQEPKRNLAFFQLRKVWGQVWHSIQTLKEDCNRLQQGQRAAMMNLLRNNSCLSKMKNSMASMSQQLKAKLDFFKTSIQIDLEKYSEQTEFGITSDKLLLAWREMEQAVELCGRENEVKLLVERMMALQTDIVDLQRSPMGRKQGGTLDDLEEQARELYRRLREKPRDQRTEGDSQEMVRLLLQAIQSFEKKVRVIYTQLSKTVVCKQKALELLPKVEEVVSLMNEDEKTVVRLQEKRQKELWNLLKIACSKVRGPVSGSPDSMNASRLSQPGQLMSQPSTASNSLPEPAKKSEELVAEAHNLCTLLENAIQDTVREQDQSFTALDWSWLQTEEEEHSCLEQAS
T17 sequence (P45984 whole entry): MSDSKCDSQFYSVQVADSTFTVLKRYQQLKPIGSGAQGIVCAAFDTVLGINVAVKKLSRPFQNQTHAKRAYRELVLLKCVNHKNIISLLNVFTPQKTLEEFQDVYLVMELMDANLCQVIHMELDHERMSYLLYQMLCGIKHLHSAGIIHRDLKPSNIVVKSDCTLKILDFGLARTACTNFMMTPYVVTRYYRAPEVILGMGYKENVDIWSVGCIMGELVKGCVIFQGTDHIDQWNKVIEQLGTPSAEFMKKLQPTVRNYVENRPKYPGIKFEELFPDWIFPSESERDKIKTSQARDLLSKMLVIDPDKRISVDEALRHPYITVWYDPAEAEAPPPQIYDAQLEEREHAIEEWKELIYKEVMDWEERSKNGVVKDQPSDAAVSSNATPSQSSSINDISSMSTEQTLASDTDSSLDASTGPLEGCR

| SMILES | % Ctrl [1] | % Ctrl [2] | % Ctrl [3] | % Ctrl [4] | % Ctrl [5] | % Ctrl [6] | % Ctrl [7] | % Ctrl [8] | % Ctrl [9] | % Ctrl [10] | % Ctrl [11] | % Ctrl [12] | % Ctrl [13] | % Ctrl [14] | % Ctrl [15] | % Ctrl [16] | % Ctrl [17] | % Ctrl [18] | % Ctrl [19] | % Ctrl [20] | further results |
| --- | --- | --- | --- | --- | --- | --- | --- | --- | --- | --- | --- | --- | --- | --- | --- | --- | --- | --- | --- | --- | --- |
| CN(C)C(=O)c1ccc(N2CCCN(c3ccnc4sc(C(N)=O)c(N)c34)CC2)cc1 [15u, 3-amino-4-(4-(4-(dimethylcarbamoyl)phenyl)-1,4-diazepan-1-yl)thieno[2,3-b]pyridine-2-carboxamide] | 97 % Ctrl | 100 % Ctrl | 71 % Ctrl | 92 % Ctrl | 95 % Ctrl | 91 % Ctrl | 97 % Ctrl | 92 % Ctrl | 100 % Ctrl | 100 % Ctrl | 100 % Ctrl | 33 % Ctrl | 96 % Ctrl | 96 % Ctrl | 89 % Ctrl | 100 % Ctrl | 68 % Ctrl | 99 % Ctrl | 100 % Ctrl | 90 % Ctrl | % Ctrl [21]: 90 % Ctrl; % Ctrl [22]: 87 % Ctrl; % Ctrl [23]: 100 % Ctrl; % Ctrl [24]: 97 % Ctrl; % Ctrl [25]: 95 % Ctrl; % Ctrl [26]: 100 % Ctrl; % Ctrl [27]: 95 % Ctrl; % Ctrl [28]: 75 % Ctrl; % Ctrl [29]: 98 % Ctrl; % Ctrl [30]: 93 % Ctrl; % Ctrl [31]: 72 % Ctrl; % Ctrl [32]: 100 % Ctrl; % Ctrl [33]: 100 % Ctrl; % Ctrl [34]: 96 % Ctrl |
| [2H]C([2H])([2H])N(C(=O)c1ccc(N2CCCN(c3ccnc4sc(C(N)=O)c(N)c34)CC2)cc1)C([2H])([2H])[2H] [15u_D6, 3-amino-4-(4-(4-(bis(methyl-d3)carbamoyl)phenyl)-1,4-diazepan-1-yl)thieno[2,3-b]pyridine-2-carboxamide] | 82 % Ctrl | 99 % Ctrl | 96 % Ctrl | 97 % Ctrl | 97 % Ctrl | 100 % Ctrl | 97 % Ctrl | 81 % Ctrl | 100 % Ctrl | 88 % Ctrl | 96 % Ctrl | 14 % Ctrl | 91 % Ctrl | 96 % Ctrl | 71 % Ctrl | 93 % Ctrl | 30 % Ctrl | 54 % Ctrl | 96 % Ctrl | 76 % Ctrl | % Ctrl [21]: 77 % Ctrl; % Ctrl [22]: 100 % Ctrl; % Ctrl [23]: 96 % Ctrl; % Ctrl [24]: 74 % Ctrl; % Ctrl [25]: 89 % Ctrl; % Ctrl [26]: 86 % Ctrl; % Ctrl [27]: 100 % Ctrl; % Ctrl [28]: 100 % Ctrl; % Ctrl [29]: 96 % Ctrl; % Ctrl [30]: 62 % Ctrl; % Ctrl [31]: 100 % Ctrl; % Ctrl [32]: 91 % Ctrl; % Ctrl [33]: 80 % Ctrl; % Ctrl [34]: 94 % Ctrl |
